Data: ChEMBL document CHEMBL1138451, “Significance of interactions of BACE1-Arg235 with its ligands and design of BACE1 inhibitors with P2 pyridine scaffold” (Bioorg Med Chem Lett, 2009)

Tests used:
Beta-secretase 1 [1] = target: T1, Beta-secretase 1 (Homo sapiens, UniProt P56817); test: Inhibition of human recombinant Arg235 region of BACE1 by FRET assay
Beta-secretase 1 [2] = target: T1, Beta-secretase 1; test: Inhibition of human recombinant Arg235 region of BACE1 at 2 uM by FRET assay
Beta-secretase 1 [3] = target: T1, Beta-secretase 1; test: Inhibition of human recombinant Arg235 region of BACE1 at 0.2 uM by FRET assay

T1 sequence (P56817 whole entry): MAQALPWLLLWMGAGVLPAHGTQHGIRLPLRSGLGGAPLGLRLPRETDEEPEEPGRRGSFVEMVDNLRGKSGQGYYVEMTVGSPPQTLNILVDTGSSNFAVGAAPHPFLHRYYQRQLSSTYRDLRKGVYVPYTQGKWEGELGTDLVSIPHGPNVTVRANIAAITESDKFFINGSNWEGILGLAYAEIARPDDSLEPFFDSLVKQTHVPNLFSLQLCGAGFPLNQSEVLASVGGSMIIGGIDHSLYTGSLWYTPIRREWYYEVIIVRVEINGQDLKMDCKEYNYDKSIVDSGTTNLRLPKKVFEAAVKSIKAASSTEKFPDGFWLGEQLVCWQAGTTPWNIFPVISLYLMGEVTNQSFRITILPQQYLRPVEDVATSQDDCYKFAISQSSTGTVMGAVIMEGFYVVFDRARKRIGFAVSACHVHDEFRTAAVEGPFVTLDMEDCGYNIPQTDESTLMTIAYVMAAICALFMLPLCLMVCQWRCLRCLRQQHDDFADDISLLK

| Compound | IC50 (Beta-secretase 1 [1]) [nM] | inhibition (Beta-secretase 1 [2]) [%] | inhibition (Beta-secretase 1 [3]) [%] |
| --- | --- | --- | --- |
| O=C(N[C@@H](Cc1ccccc1)[C@H](O)C(=O)Nc1cccc(-c2nn[nH]n2)c1)c1cc(Cl)cc(C(=O)N2COC[C@@H]2c2ccc(F)cc2)n1 | 13 | 99 | 91 |
| O=C(N[C@@H](Cc1ccccc1)[C@H](O)C(=O)Nc1cccc(-c2nnn[nH]2)c1)c1cc(Cl)cc(C(=O)N2COC[C@@H]2c2ccccc2)n1 | 22 | – | – |
| O=C(N[C@@H](Cc1ccccc1)[C@H](O)C(=O)Nc1cccc(-c2nn[nH]n2)c1)c1cc(I)cc(C(=O)N2COC[C@@H]2c2ccc(F)cc2)n1 | – | 99 | 92 |
| O=C(N[C@@H](Cc1ccccc1)[C@H](O)C(=O)Nc1cccc(-c2nn[nH]n2)c1)c1cc(Br)cc(C(=O)N2COC[C@@H]2c2ccccc2)n1 | – | 99 | 88 |
| O=C(N[C@@H](Cc1ccccc1)[C@H](O)C(=O)Nc1cccc(-c2nn[nH]n2)c1)c1cc(I)cc(C(=O)N2COC[C@@H]2c2ccccc2)n1 | 24 | 99 | 86 |

Continued, values first:

| IC50 (Beta-secretase 1 [1]) [nM] | inhibition (Beta-secretase 1 [2]) [%] | inhibition (Beta-secretase 1 [3]) [%] | Compound |
| --- | --- | --- | --- |
| 9 | – | – | O=C(N[C@@H](Cc1ccccc1)[C@H](O)C(=O)Nc1cccc(-c2nnn[nH]2)c1)c1cc(Br)cc(C(=O)N2COC[C@@H]2c2ccc(F)cc2)n1 |
| – | 99 | 93 | O=C(N[C@@H](Cc1ccccc1)[C@H](O)C(=O)Nc1cccc(-c2nn[nH]n2)c1)c1cc(Br)cc(C(=O)N2COC[C@@H]2c2ccc(F)cc2)n1 |
| 10 | – | – | O=C(N[C@@H](Cc1ccccc1)[C@H](O)C(=O)Nc1cccc(-c2nnn[nH]2)c1)c1cc(I)cc(C(=O)N2COC[C@@H]2c2ccc(F)cc2)n1 |
| 15 | – | – | O=C(N[C@@H](Cc1ccccc1)[C@H](O)C(=O)Nc1cccc(-c2nnn[nH]2)c1)c1cc(Br)cc(C(=O)N2COC[C@@H]2c2ccccc2)n1 |
| – | 89 | – | O=C(N[C@@H](Cc1ccccc1)[C@H](O)C(=O)Nc1cccc(-c2nn[nH]n2)c1)c1cccc(C(=O)N2COC[C@@H]2c2ccccc2)n1 |
| – | 98 | 87 | O=C(N[C@@H](Cc1ccccc1)[C@H](O)C(=O)Nc1cccc(-c2nn[nH]n2)c1)c1cc(Cl)cc(C(=O)N2COC[C@@H]2c2ccccc2)n1 |
